# System: recombinant guanylate cyclase reporter cell line
# Assay: sGC-activating activity in the CHO reporter cell in vitro
# Type: cell-based
# Details: read-out: MEC (minimum effective concentration)
# Procedure: B-2. Action at a Recombinant Guanylate Cyclase Reporter Cell Line
# The cellular action of the compounds according to the invention is determined at a recombinant guanylate cyclase reporter cell line, as described in F. Wunder et al., Anal. Biochem. 32, 104-112 (2005).
row,Structure (SMILES),minimal effective concentration [µM]
1,O=C(O)CCCCN(CCc1ccccc1OCc1ccc([C@H]2CC[C@H](C(F)(F)F)CC2)cc1)C1CCCc2nc(C(=O)O)ccc21 (some centres unmarked) [Example 11],0.0003
2,"O=C(O)CCCCN(CCc1ccccc1OCc1ccc(-c2nc3cc(C(F)(F)F)ccc3o2)cc1)C1CCCc2nc(C(=O)O)ccc21 (single isomer, unassigned) [Example 25]",0.0003
3,CCC(=O)N1CCC(c2ccc(COc3ccccc3CCN(CCCCC(=O)O)C3CCCc4nc(C(=O)O)ccc43)cc2)CC1 (centres unmarked) [Example 5],0.1
4,"O=C(O)CCCCN(CCc1ccccc1OCc1ccc(-c2ccc(C(F)(F)F)cc2)cc1)C1CCCc2nc(C(=O)O)ccc21 (single isomer, unassigned) [Example 17]",1
5,"N#Cc1ccc2oc(-c3ccc(COc4ccccc4CCN(CCCCC(=O)O)C4CCCc5nc(C(=O)O)ccc54)cc3)nc2c1 (single isomer, unassigned) [Example 31]",0.01
6,"O=C(O)c1ccc(CCN(CCc2ccccc2OCc2ccc(-c3nc4cc(OC(F)(F)F)ccc4o3)cc2)C2CCCc3nc(C(=O)O)ccc32)cc1 (single isomer, unassigned) [Example 29]",0.003
7,"O=C(O)c1ccc(CCN(CCc2ccccc2OCc2ccc(-c3nc4cc(C(F)(F)F)ccc4o3)cc2)C2CCCc3nc(C(=O)O)ccc32)cc1 (single isomer, unassigned) [Example 24]",0.001
8,"O=C(O)CCCCN(CCc1ccccc1OCCCCCc1ccccc1)C1CCCc2nc(C(=O)O)ccc21 (single isomer, unassigned) [Example 9]",0.01
9,"O=C(O)c1ccc(CCN(CCc2cc(F)ccc2OCc2ccc(-c3ccc(C(F)(F)F)cc3)cc2Cl)C2CCCc3nc(C(=O)O)ccc32)cc1 (single isomer, unassigned) [Example 33]",0.01
10,"O=C(O)c1ccc(CCN(CCc2ccccc2OCc2ccc(CCc3ccccc3)cc2)C2CCCc3nc(C(=O)O)ccc32)cc1 (single isomer, unassigned; enantiomer 2) [Example 38, 5-{[2-(4-Carboxyphenyl)ethyl][2-(2-{[4-(2-phenylethyl)benzyl]oxy}phenyl)ethyl]amino}-5,6,7,8-tetrahydroquinoline-2-carboxylic acid (Enantiomer 2)]",0.0003
11,"CC(C)(C)c1ccc(COc2ccccc2CCN(CCCCC(=O)O)C2CCCc3nc(C(=O)O)ccc32)cc1 (single isomer, unassigned) [Example 3]",0.1
12,"O=C(O)CCCCN(CCc1ccccc1OCc1ccc(-c2nc3cc(Cl)ccc3o2)cc1)C1CCCc2nc(C(=O)O)ccc21 (single isomer, unassigned) [Example 32]",0.0003
13,"O=C(O)CCCCN(CCc1cc(F)ccc1OCc1ccc(-c2nc3cc(Cl)ccc3o2)cc1)C1CCCc2nc(C(=O)O)ccc21 (single isomer, unassigned) [Example 36]",0.03
14,"O=C(O)c1ccc(CCN(CCc2ccccc2OCc2ccc(-c3nc4ccccc4o3)cc2)C2CCCc3nc(C(=O)O)ccc32)cc1 (single isomer, unassigned) [Example 26]",0.001
15,"Cc1ccc2oc(-c3ccc(COc4ccccc4CCN(CCc4ccc(C(=O)O)cc4)C4CCCc5nc(C(=O)O)ccc54)cc3)nc2c1 (single isomer, unassigned) [Example 22]",0.001
16,"O=C(O)c1ccc(CCN(CCc2ccccc2OCc2ccc(-c3nc4cc(Cl)ccc4o3)cc2)C2CCCc3nc(C(=O)O)ccc32)cc1 (single isomer, unassigned; enantiomer 1) [Example 19, 5-{[2-(4-Carboxyphenyl)ethyl][2-(2-{[4-(5-chloro-1,3-benzoxazol-2-yl)benzyl]oxy}phenyl)ethyl]-amino}-5,6,7,8-tetrahydroquinoline-2-carboxylic acid (Enantiomer 1)]",0.03
17,"O=C(O)CCCCN(CCc1ccccc1OCc1ccc(-c2ccc(C(F)(F)F)cc2)cc1Cl)C1CCCc2nc(C(=O)O)ccc21 (single isomer, unassigned) [Example 7]",0.0003

# — patent US10053428B2, “5-aminotetrahydroquinoline-2-carboxylic acids and their use” (BAYER PHARMA AKTIENGESELLSCHAFT, priority 2012, dated 2018)
